Patent US11426367B2, “Methods of treating substance abuse” (Perception Neuroscience, Inc., priority 2018, dated 2022)

Tests used:
[1] = test system: social defeat stress mice; experiment: Locomotion test (LMT), social defeat stress model; format: in vivo; conditions: 10 mg/kg i.p., 2 days after injection
Experimental: A social defeat stress model of depression was prepared by bringing C57/B6 male mice into contact with ICR male mice (large aggressive mice) for 10 consecutive days to apply a stress called a “social defeat stress” in accordance with the previous report (Non Patent Literature 19). […] Specifically, an increase in immobility time was found in each of a tail suspension test (TST) and a forced swimming test (FST).
The preparation of the animal model of depression and the administration of the agent were specifically performed as described below (FIG. 3A). Male C57/B6 mice (7-week-old, Japan SLC, Inc., Hamamatsu, Japan) and ICR mice (9-week-old, Japan SLC, Inc., Hamamatsu, Japan) were used. […]
The antidepressant effects of the agent were investigated by behavioral tests such as the TST, the PST, the LMT, and a 1% sucrose preference test (SPT) (FIG. 3A). […] The immobility time of each mouse was recorded for 10 minutes. […] The immobility time was calculated as a value obtained by subtracting active time from total time, using the analysis software of the apparatus. Cumulative immobility time was recorded over 6 minutes during a test period. […] The locomotor activity of the mice was counted with SCANET MV-40, and the cumulative exercise of the mice was recorded for 60 minutes. […] A spine density was quantitatively evaluated by observation with a KEYENCE microscope (BZ-9000, Osaka, Japan).

[2] = test system: morphine withdrawal signs in rats; experiment: Naloxone-precipitated withdrawal from subchronic morphine; format: in vivo; conditions: 10 and 20 mg/kg i.p. before naloxone 1 mg/kg SC, morphine 10 mg/kg SC b.i.d.
Experimental: Forty (40) male Wistar rats served as test subjects in this study. Animals were pair housed with unrestricted access to rodent chow and water (SOP ROD.03.01, SOP ROD.04.01, SOP ROD.18). […] All experimental activity occurring during the animals' light cycle. All animal use procedures were performed in accordance with the principles of the Canadian Council on Animal Care (CCAC).
Forty (40) male Wistar rats were assigned to 5 groups of N=8 rats per group. Group A was dosed with saline vehicle (Sal; subcutaneous (SC) route) twice daily (approx. 08:00±1 h and 18:00±1 h) for 12 days. […] This treatment regimen was designed to induce opioid dependence (Erami et al., 2012). […] On days 9 and 12, rats were tested for naloxone precipitated withdrawal. According to a cross-over design (see Table 4: Treatment Groups), all rats in each group received either acute saline, or naloxone hydrochloride (1 mg/kg; dose volume 2 ml/kg) injection by the SC route, 5 minutes prior to behavioral testing. […] Lofexidine doses are based on literature values (e.g. Shearman et al., 1979). Immediately after vehicle or naloxone injection, rats were transferred to activity chambers for 30 minutes where the animals were visually assessed for somatic signs associated with opioid withdrawal (e.g. writhes, chews, ptosis, WDS, shakes, tremor, penile grooming, body weight change; see Higgins and Sellers, 1994). Simultaneously, the activity pattern (distance travelled, rearing) of each rat was automatically recorded.
Locomotor activity. Spontaneous activity in the rats was measured with the automated Med Associates activity test chamber for 30 minutes with 10-minute time bins. The tracking arena was 17″W×17″L×12″H, sensor bars are secured 1″ above the floor to track distance travelled, and a second set of sensor bars are placed ˜5″ above the floor to measure vertical movement and rearing activity. The parameters set on the tracking software were as follows: resolution—50 milliseconds (ms), box size—4 beams, resting delay—500 ms, and ambulatory trigger—2 (SOP ROD.25). […]

[3] = test system: Morphine Seizures; conditions: Not blocked by naloxone; Kolesnikov et al., 1997; cited from earlier work
[4] = test system: tolerance to effects of ethanol; experiment: Tolerance to ethanol, grip strength; conditions: for tolerance to the effect of ethanol on grip strength/body weight (motor-impairment): rats, 3 mg/kg given with ethanol (2.3 and 1.7) on day 1, tested day 2, 30 min post ethanol, 3 mg/kg
[5] = test system: patients with depression; conditions: cited from earlier work
[6] = test system: Chronic pain patients; conditions: chronic pain patients after i.v. R,S-ketamine; Persson et al., 1998; cited from earlier work

Row | SMILES | locomotion in the LMT [1] | overall morphine withdrawal scores (naloxone-precipitated withdrawal signs) [2] | overall morphine withdrawal scores (naloxone-precipitated withdrawal signs) ([2]; listed as R-ketamine) | Morphine Seizures, dose [3] [mg/kg] | Ethanol Tolerance, dose blocking development of tolerance ([4]; grip strength, Present study) | tolerance to the effect of ethanol on grip strength/body weight (motor-impairment) [4] | tolerance to the effect of ethanol on grip strength/body weight (motor-impairment) ([4]; listed as R-ketamine) | antidepressant effects compared with RS(+/−)-ketamine (0.5 mg/kg, i.v.) ([5]; 0.25 mg/kg i.v., treatment-resistant patients with MDD, case report, Non Patent Literature 14) | effective oral doses in patients with depression ([5]; oral, Non Patent Literatures 15 and 16) [mg/kg] | Plasma levels of S analyzed [6]
1 | CN[C@@]1(c2ccccc2Cl)CCCCC1=O.Cl [R(−)-ketamine] | no difference in locomotion | dose-dependently attenuated overall morphine withdrawal scores | significantly attenuated the naloxone-induced withdrawal signs | 0.3 | 3 - grip strength mg/kg | tolerance was significantly diminished | blocked |  |  | 
2 | CN[C@]1(c2ccccc2Cl)CCCCC1=O [S(+)-ketamine] | no difference in locomotion |  |  | 0.03 |  |  |  | weaker | 1.25 | Plasma levels of S analyzed (50-400 ng/ml)
